Data published in PubChem BioAssay AID1919015 (Molecular Pharmacology Branch, DTP, NCI, 2023).

Test system: OVCAR-5 complex spheroids with HUVEC/MSC, viability, % test/control
Assay: Anticancer human tumor OVCAR-5 cell line growth inhibition [AhR];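 also: spheroids exposed to compounds for 7 days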;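 as to viability, T/C: 100% = DMSO vehicle control wells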
Settings: for IC50: curve of first compound; for viability, T/C: stronger effect = lower value; active = viability on the fitted dose curve at most 10% of control; inactive = the rest
Description: Multicellular complex tumor spheroid response to aryl hydrocarbon receptor antagonists in combination with a variety of drugs and investigational agents in selected tumor cell lines
The current study was undertaken to assess response to aryl hydrocarbon receptor antagonists in combination with standard-of-care drugs and investigational agents in solid tumor complex spheroid models. Complex spheroids include a stromal component modeled by human endothelial cells (HUVEC) and fibroblasts modeled by human mesenchymal stem cells (MSCs). The concentration ranges selected for each drug and investigational agent were based upon clinically achievable concentrations if the clinical Cmax of the agent was known.
Compounds. The drugs and investigational agents: BAY 2416964 (NSC825713), GNF351 (NSC835774), CH-223191 (NSC835775), CPI-455 (NSC825282), aza-TdCyd (NSC777586), decitabine (NSC127716), belinostat (NSC758774), entinostat (NSC756642), pevonedistat (NSC761192), tazemetostat (NSC777109), talazoparib (NSC765396), olaparib (NSC753686), selinexor (NSC780203), nedisertib (M3814, NSC802822), bortezomib (NSC756655), venetoclax (NSC766270), doxorubicin (NSC123127), elimusertib (BAY189344, NSC800525), ceralasertib (AZD6738, NSC777638), TAK-243 (NSC785004), alisertib (NSC759677), etoposide (NSC141540), topotecan (NSC609699), eribulin (NSC707389), gemcitabine (NSC613327), carboplatin (NSC241240), cisplatin (NSC119875), and SN-38 (NSC673596) were obtained from the National Cancer Institute (NCI) Developmental Therapeutics Program Chemical Repository (32). The FDA-approved anticancer drug set is available from the Developmental Therapeutics Program at https://dtp.cancer.gov/organization/dscb/obtaining/available plates.htm. […] The stock solutions were prepared in dimethyl sulfoxide (DMSO, Sigma-Aldrich, St. Louis, MO, cat. D2650), except for the platinum compounds which were prepared in saline (Quality Biological, Gaithersburg, MD, cat. 114-055-101), at 800-fold the tested concentration and stored at -70 degrees C prior to their use. All drugs and investigational agents were tested over a range starting from a high concentration at or near the clinical Cmax and decreasing in half-log increments. If the clinical Cmax for an agent had not been determined, the highest concentration tested was 10 microM (Table 1).
Cell Culture. All cells were maintained in an incubator at 37 degrees C and 5% CO2 with 95% humidity. The PDC lines were cultured according to standard operating procedures established by the NCI PDMR (https://pdmr.cancer.gov). Briefly, all PDCs were thawed and cultured in Matrigel-coated flasks prepared with a working solution of 1X Ham's F-12 nutrient mix, without supplementation (Invitrogen, Waltham, MA, cat. 11765054), 100 U/mL penicillin-streptomycin (Invitrogen, cat. 15140122), and 2.5% Matrigel (Corning Inc., Corning, NY, cat. 354248) for the first three passages. All PDCs were cultured in complete DMEM/F-12 media containing advanced DMEM/F-12 (Invitrogen, cat. 12634028), 4.9% defined fetal bovine serum, heat inactivated (HyClone Laboratories Inc., Logan, UT, cat. SH30070.03HI), 389 ng/mL hydrocortisone (Sigma-Aldrich, cat. H4001), 9.7 ng/mL human EGF recombinant protein (Invitrogen, cat. PHG0313), 23.4 microg/mL adenine (Sigma-Aldrich, cat. A2786), 97.3 U/mL penicillin-streptomycin (Invitrogen, cat. 15140122), 1.9 mM L-glutamine (Invitrogen, cat. 25030081), and 9.7 microM Y-27632 dihydrochloride (Tocris Bioscience, Bristol, United Kingdom, cat. 1254). The PDCs were cultured in complete DMEM/F12 media without 10 microM Y-27632 dihydrochloride for at least two passages prior to the screen. The established cell lines NCI-H1341 and […] were cultured in DMEM/F-12, HEPES (Invitrogen, cat. 11330032), 5% defined fetal bovine serum (HyClone Laboratories Inc., cat. SH30070.03), ITS premix universal culture supplement [insulin (5 microg/mL), transferrin (5 microg/mL), and selenious acid (5 ng/mL)] […]

CC1(C)CCC(CN2CCN(c3ccc(C(=O)NS(=O)(=O)c4ccc(NCC5CCOCC5)c([N+](=O)[O-])c4)c(Oc4cnc5[nH]ccc5c4)c3)CC2)=C(c2ccc(Cl)cc2)C1 + CC(CO)NC(=O)c1cc(-c2ccc(Cl)cc2)nn(-c2cnn(C)c2)c1=O
> 10 µM: IC50 (second compound 0.1 µM) | IC50 (second compound 0.316 µM) | IC50 (second compound 1 µM) | IC50 (second compound 3.16 µM) | IC50 (second compound 10 µM)
inactive: viability, T/C (second compound 0.1 µM, first compound 0.0316 µM) 107% | viability, T/C (second compound 0.1 µM, first compound 0.1 µM) 107% | viability, T/C (second compound 0.1 µM, first compound 0.316 µM) 109% | viability, T/C (second compound 0.1 µM, first compound 1 µM) 113% | viability, T/C (second compound 0.1 µM, first compound 3.16 µM) 118% | viability, T/C (second compound 0.1 µM, first compound 10 µM) 51.4% | viability, T/C (second compound 0.316 µM, first compound 0.0316 µM) 111% | viability, T/C (second compound 0.316 µM, first compound 0.1 µM) 107% | viability, T/C (second compound 0.316 µM, first compound 0.316 µM) 113% | viability, T/C (second compound 0.316 µM, first compound 1 µM) 114% | viability, T/C (second compound 0.316 µM, first compound 3.16 µM) 118% | viability, T/C (second compound 0.316 µM, first compound 10 µM) 50.6% | viability, T/C (second compound 1 µM, first compound 0.0316 µM) 115% | viability, T/C (second compound 1 µM, first compound 0.1 µM) 116% | viability, T/C (second compound 1 µM, first compound 0.316 µM) 122% | viability, T/C (second compound 1 µM, first compound 1 µM) 120% | viability, T/C (second compound 1 µM, first compound 3.16 µM) 122% | viability, T/C (second compound 1 µM, first compound 10 µM) 53.8% | viability, T/C (second compound 3.16 µM, first compound 0.0316 µM) 102% | viability, T/C (second compound 3.16 µM, first compound 0.1 µM) 106% | viability, T/C (second compound 3.16 µM, first compound 0.316 µM) 104% | viability, T/C (second compound 3.16 µM, first compound 1 µM) 111% | viability, T/C (second compound 3.16 µM, first compound 3.16 µM) 114% | viability, T/C (second compound 3.16 µM, first compound 10 µM) 53.8% | viability, T/C (second compound 10 µM, first compound 0.0316 µM) 100% | viability, T/C (second compound 10 µM, first compound 0.1 µM) 102% | viability, T/C (second compound 10 µM, first compound 0.316 µM) 104% | viability, T/C (second compound 10 µM, first compound 1 µM) 104% | viability, T/C (second compound 10 µM, first compound 3.16 µM) 106% | viability, T/C (second compound 10 µM, first compound 10 µM) 57.6%
